Measured values taken from US6362369B1, “Phthalic acid diamide derivatives fluorine-containing aniline compounds as starting material, agricultural and horticultural insecticides, and a method for application of the insecticides” (Nihon Nohyaku Co., Ltd., priority 1997, dated 2002).

Key:
[1] = system: diamondback moth (Plutella xylostella); experiment: Insecticidal effect on diamondback moth (Test Example 1); type: in vivo; settings: diamondback moth; for Insecticidal effect, Test Example 1: mortality judged by criterion of Test Example 1; for Insecticidal effect (Test Example 1), judged from mortality: judged by the criterion of Test Example 1
Summary of the method: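 Chinese cabbage seedlings carrying eggs laid by released adult moths were immersed in treatment, air-dried and held at 25° C. Hatched insects were counted six days after immersion, and mortality was calculated and scored against a fixed criterion. Three replicate groups of 10 insects were used.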

[2] = system: rice leafroller (Cnaphalocrocis medinalis); experiment: Insecticidal effect on rice leafroller (Test Example 3); type: in vivo; settings: 500 ppm, 25° C., humidity 70%; for Insecticidal effect, Test Example 3: rice leafroller third-instar larvae, rice lamina immersed, four days after inoculation; for Insecticidal effect (Test Example 3), judged from mortality: rice lamina dip, third-instar larvae of rice leafroller, 4 days after inoculation
Summary of the method: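 Groups of 10 third-instar larvae, in triplicate, are placed on air-dried lamina resting on wet filter paper. Incubation runs four days at 25° C with 70% humidity before survivors and dead are tallied.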

Cc1cc(C(F)(F)C(F)(F)F)ccc1NC(=O)c1c(I)cccc1C(=O)N(C)Cc1ccccc1 [compound 1439]
Insecticidal effect, Test Example 1 [1]: A (100) | Insecticidal effect, Test Example 3 [2]: C (89-80)

CCC(CO)NC(=O)c1cccc(Cl)c1C(=O)Nc1ccc(C(F)(F)C(F)(F)F)cc1C (stereo not shown) [compound 1441]
Insecticidal effect, Test Example 1 [1]: A (100) | Insecticidal effect, Test Example 3 [2]: A (100)

C#CCNC(=O)c1c(I)cccc1C(=O)Nc1ccc(OC(F)F)cc1C [compound 1456]
Insecticidal effect (Test Example 1), judged from mortality [1]: A (100) | Insecticidal effect (Test Example 3), judged from mortality [2]: A (100)

CCN(Cc1ccccc1)C(=O)c1c(Cl)cccc1C(=O)Nc1ccc(C(F)(F)C(F)(F)F)cc1C [compound 1457]
Insecticidal effect (Test Example 1), judged from mortality [1]: A (100) | Insecticidal effect (Test Example 3), judged from mortality [2]: A (100)

Cc1cc(C(F)(F)C(F)(F)F)ccc1NC(=O)c1c(Cl)cccc1C(=O)N[C@H](C)CO [compound 1461]
Insecticidal effect (Test Example 1), judged from mortality [1]: A (100) | Insecticidal effect (Test Example 3), judged from mortality [2]: A (100)

Cc1cc(C(F)(F)C(F)(F)F)ccc1NC(=O)c1c(I)cccc1C(=O)NC(C)CO (stereo not shown) [compound 1465]
Insecticidal effect (Test Example 1), judged from mortality [1]: A (100) | Insecticidal effect (Test Example 3), judged from mortality [2]: A (100)

Cc1cc(C(F)(F)C(F)(F)F)ccc1NC(=O)c1cccc(F)c1C(=O)NCc1ccccc1 [compound 1470]
Insecticidal effect (Test Example 1), judged from mortality [1]: A (100) | Insecticidal effect (Test Example 3), judged from mortality [2]: A (100)

CCNC(=O)c1c(Cl)cccc1C(=O)Nc1ccc(C(F)(F)C(F)(F)F)cc1F [compound 1488]
Insecticidal effect (Test Example 1), judged from mortality [1]: A (100) | Insecticidal effect (Test Example 3), judged from mortality [2]: A (100)

CCNC(=O)c1c(Cl)cccc1C(=O)Nc1ccc(C(F)(F)C(F)(F)C(F)(F)F)cc1F [compound 1490]
Insecticidal effect (Test Example 1), judged from mortality [1]: A (100) | Insecticidal effect (Test Example 3), judged from mortality [2]: A (100)

CCCNC(=O)c1c(Cl)cccc1C(=O)Nc1ccc(C(F)(F)C(F)(F)F)cc1Cl [compound 1492]
Insecticidal effect (Test Example 1), judged from mortality [1]: A (100) | Insecticidal effect (Test Example 3), judged from mortality [2]: A (100)

CCCNC(=O)c1c(Cl)cccc1C(=O)Nc1ccc(C(F)(F)C(F)(F)C(F)(F)F)cc1F [compound 1493]
Insecticidal effect (Test Example 1), judged from mortality [1]: A (100) | Insecticidal effect (Test Example 3), judged from mortality [2]: A (100)

CCNC(=O)c1c(F)cccc1C(=O)Nc1ccc(C(F)(F)C(F)(F)F)cc1F [compound 1510]
Insecticidal effect (Test Example 1), judged from mortality [1]: A (100) | Insecticidal effect (Test Example 3), judged from mortality [2]: A (100)

CC(C)NC(=O)c1c(F)cccc1C(=O)Nc1ccc(C(F)(F)C(F)(F)F)cc1F [compound 1514]
Insecticidal effect (Test Example 1), judged from mortality [1]: A (100) | Insecticidal effect (Test Example 3), judged from mortality [2]: A (100)

CC(C)NC(=O)c1cccc(F)c1C(=O)Nc1ccc(C(F)(F)C(F)(F)F)cc1Cl [compound 1517]
Insecticidal effect (Test Example 1), judged from mortality [1]: A (100) | Insecticidal effect (Test Example 3), judged from mortality [2]: A (100)

Cc1cc(OC(F)(F)F)ccc1NC(=O)c1cccc(I)c1C(=O)NC(C)(C)CO [compound 1519]
Insecticidal effect (Test Example 1), judged from mortality [1]: A (100) | Insecticidal effect (Test Example 3), judged from mortality [2]: A (100)

Cc1cc(C(F)(F)C(F)(F)F)ccc1NC(=O)c1cccc(Cl)c1C(=O)NCc1ccccc1C(F)(F)F [compound 1523]
Insecticidal effect (Test Example 1), judged from mortality [1]: A (100) | Insecticidal effect (Test Example 3), judged from mortality [2]: A (100)

CCN(CC)C(=O)c1c(F)cccc1C(=O)Nc1ccc(OC(F)(F)F)cc1C [compound 1527]
Insecticidal effect (Test Example 1), judged from mortality [1]: A (100) | Insecticidal effect (Test Example 3), judged from mortality [2]: A (100)

CCN(CC)C(=O)c1c(F)cccc1C(=O)Nc1ccc(OC(F)F)cc1C [compound 1528]
Insecticidal effect (Test Example 1), judged from mortality [1]: A (100) | Insecticidal effect (Test Example 3), judged from mortality [2]: A (100)

CCN(CC)C(=O)c1c(F)cccc1C(=O)Nc1ccc(OC(F)(F)C(F)F)cc1C [compound 1529]
Insecticidal effect (Test Example 1), judged from mortality [1]: A (100) | Insecticidal effect (Test Example 3), judged from mortality [2]: A (100)

CCN(CC)C(=O)c1c(F)cccc1C(=O)Nc1ccc(C(F)(F)C(F)(F)F)cc1F [compound 1530]
Insecticidal effect (Test Example 1), judged from mortality [1]: A (100) | Insecticidal effect (Test Example 3), judged from mortality [2]: A (100)

CCN(CC)C(=O)c1c(F)cccc1C(=O)Nc1ccc(C(F)(F)F)cc1 [compound 1547]
Insecticidal effect (Test Example 1), judged from mortality [1]: A (100) | Insecticidal effect (Test Example 3), judged from mortality [2]: A (100)

CCN(CC)C(=O)c1c(F)cccc1C(=O)Nc1ccc(OC(F)(F)F)cc1 [compound 1548]
Insecticidal effect (Test Example 1), judged from mortality [1]: A (100) | Insecticidal effect (Test Example 3), judged from mortality [2]: A (100)

Cc1cc(C(F)(F)C(F)(F)F)ccc1N(C)C(=O)c1cccc(Cl)c1C(=O)N(C)Cc1ccccc1 [compound 1553]
Insecticidal effect (Test Example 1), judged from mortality [1]: A (100) | Insecticidal effect (Test Example 3), judged from mortality [2]: A (100)

CCN(CC)C(=O)c1c(I)cccc1C(=O)Nc1ccc(OC(F)F)cc1C [compound 1555]
Insecticidal effect (Test Example 1), judged from mortality [1]: A (100) | Insecticidal effect (Test Example 3), judged from mortality [2]: A (100)

CCCN(CC)C(=O)c1c(I)cccc1C(=O)Nc1ccc(OC(F)F)cc1C [compound 1575]
Insecticidal effect (Test Example 1), judged from mortality [1]: A (100) | Insecticidal effect (Test Example 3), judged from mortality [2]: A (100)

Cc1cc(C(F)(F)C(F)(F)F)ccc1NC(=O)c1cccc(Cl)c1C(=O)N(C)Cc1cccc(Cl)c1 [compound 1578]
Insecticidal effect (Test Example 1), judged from mortality [1]: A (100) | Insecticidal effect (Test Example 3), judged from mortality [2]: A (100)

CCCN(CC)C(=O)c1c(F)cccc1C(=O)Nc1ccc(OC(F)(F)F)cc1 [compound 1582]
Insecticidal effect (Test Example 1), judged from mortality [1]: A (100) | Insecticidal effect (Test Example 3), judged from mortality [2]: A (100)

CCCN(CC)C(=O)c1c(F)cccc1C(=O)Nc1ccc(OC(F)F)cc1 [compound 1583]
Insecticidal effect (Test Example 1), judged from mortality [1]: A (100) | Insecticidal effect (Test Example 3), judged from mortality [2]: A (100)

CCCN(CC)C(=O)c1c(F)cccc1C(=O)Nc1ccc(C(F)(F)C(F)(F)F)cc1Cl [compound 1584]
Insecticidal effect (Test Example 1), judged from mortality [1]: A (100) | Insecticidal effect (Test Example 3), judged from mortality [2]: A (100)

C#CC(C)(C)NC(=O)c1c(Cl)cccc1C(=O)Nc1ccc(OC(F)F)cc1C [compound 1588]
Insecticidal effect (Test Example 1), judged from mortality [1]: A (100) | Insecticidal effect (Test Example 3), judged from mortality [2]: A (100)

C=CC(C)(C)NC(=O)c1cccc(Cl)c1C(=O)Nc1ccc(C(F)(F)C(F)(F)F)cc1C [compound 1589]
Insecticidal effect (Test Example 1), judged from mortality [1]: A (100) | Insecticidal effect (Test Example 3), judged from mortality [2]: A (100)

CC(C)NC(=O)c1c(I)cccc1C(=O)Nc1ccc2c(c1)OC(F)(F)C2(F)F [compound 1620]
Insecticidal effect (Test Example 1), judged from mortality [1]: A (100) | Insecticidal effect (Test Example 3), judged from mortality [2]: A (100)

CC(C)NC(=O)c1c(I)cccc1C(=O)Nc1ccc2c(c1Cl)OC(F)(F)C(F)(F)O2 [compound 1626]
Insecticidal effect (Test Example 1), judged from mortality [1]: A (100) | Insecticidal effect (Test Example 3), judged from mortality [2]: A (100)

CC(C)NC(=O)c1ccccc1C(=O)Nc1ccc(Cl)cc1F [compound 1632]
Insecticidal effect (Test Example 1), judged from mortality [1]: A (100) | Insecticidal effect (Test Example 3), judged from mortality [2]: A (100)

Cc1cc2oc(C(F)(F)F)nc2cc1NC(=O)c1cccc(I)c1C(=O)NC(C)C [compound 1641]
Insecticidal effect (Test Example 1), judged from mortality [1]: A (100) | Insecticidal effect (Test Example 3), judged from mortality [2]: A (100)

CC(C)NC(=O)c1c(Cl)cccc1C(=O)Nc1cc2c(cc1Cl)OC(F)(F)C(F)(F)O2 [compound 1643]
Insecticidal effect (Test Example 1), judged from mortality [1]: A (100) | Insecticidal effect (Test Example 3), judged from mortality [2]: A (100)

Cc1nc(-c2cccc(NC(=O)c3cccc(I)c3C(=O)NC(C)C)c2)co1 [compound 1659]
Insecticidal effect (Test Example 1), judged from mortality [1]: A (100) | Insecticidal effect (Test Example 3), judged from mortality [2]: A (100)

CC(C)NC(=O)c1c(I)cccc1C(=O)Nc1ccc(C(F)(C(F)(F)F)C(F)(F)F)c2c1CCCC2 [compound 1726]
Insecticidal effect (Test Example 1), judged from mortality [1]: A (100) | Insecticidal effect (Test Example 3), judged from mortality [2]: A (100)

CC(C)(C)NC(=O)c1c(I)cccc1C(=O)Nc1ccc(C(F)(C(F)(F)F)C(F)(F)F)c2c1CCCC2 [compound 1727]
Insecticidal effect (Test Example 1), judged from mortality [1]: A (100) | Insecticidal effect (Test Example 3), judged from mortality [2]: A (100)

CC(C)NC(=O)c1c(I)cccc1C(=O)Nc1cccc2c1OC(F)(F)O2 [compound 1742]
Insecticidal effect (Test Example 1), judged from mortality [1]: A (100) | Insecticidal effect (Test Example 3), judged from mortality [2]: A (100)

CC(C)NC(=O)c1c(I)cccc1C(=O)Nc1c(Cl)ccc2c1OC(F)(F)O2 [compound 1743]
Insecticidal effect (Test Example 1), judged from mortality [1]: A (100) | Insecticidal effect (Test Example 3), judged from mortality [2]: A (100)
